Where two headings read alike, the source gives them in different places.
Molecular target: T1, wild-type mouse TMEM16A (Mus musculus, UniProt Q8BHY3)
T1 construct: expressed in transfected cells; host or cells: HEK293T
T1 sequence (Q8BHY3 1-960): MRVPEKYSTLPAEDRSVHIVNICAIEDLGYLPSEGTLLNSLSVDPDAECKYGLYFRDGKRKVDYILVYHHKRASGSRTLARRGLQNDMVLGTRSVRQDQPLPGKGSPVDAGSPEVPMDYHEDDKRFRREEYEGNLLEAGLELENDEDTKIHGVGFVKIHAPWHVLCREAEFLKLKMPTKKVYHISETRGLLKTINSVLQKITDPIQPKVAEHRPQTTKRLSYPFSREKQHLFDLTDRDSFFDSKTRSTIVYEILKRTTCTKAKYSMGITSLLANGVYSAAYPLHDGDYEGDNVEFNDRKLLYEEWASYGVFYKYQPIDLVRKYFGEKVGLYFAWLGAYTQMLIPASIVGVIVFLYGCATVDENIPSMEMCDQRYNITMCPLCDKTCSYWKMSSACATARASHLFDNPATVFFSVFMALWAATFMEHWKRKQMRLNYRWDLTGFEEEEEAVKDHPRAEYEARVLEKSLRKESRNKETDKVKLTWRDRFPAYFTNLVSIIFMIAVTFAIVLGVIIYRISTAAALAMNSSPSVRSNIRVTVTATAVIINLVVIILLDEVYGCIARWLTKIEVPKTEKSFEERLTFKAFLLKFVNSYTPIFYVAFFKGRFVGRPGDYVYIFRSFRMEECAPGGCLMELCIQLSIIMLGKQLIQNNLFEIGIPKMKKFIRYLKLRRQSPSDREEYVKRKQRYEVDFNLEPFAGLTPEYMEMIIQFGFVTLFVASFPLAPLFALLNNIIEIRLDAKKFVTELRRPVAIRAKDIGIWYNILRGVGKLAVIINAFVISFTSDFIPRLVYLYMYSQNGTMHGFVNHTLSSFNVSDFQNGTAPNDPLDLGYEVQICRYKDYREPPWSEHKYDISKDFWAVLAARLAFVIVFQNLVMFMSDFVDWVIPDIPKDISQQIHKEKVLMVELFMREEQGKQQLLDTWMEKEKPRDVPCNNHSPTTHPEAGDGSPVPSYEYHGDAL
Assay: Inside-out patch recording of 1PBC block, wild-type TMEM16A
Type: cell-based
Description: HEK293T cells (ATCC CRL-1573) were maintained in Dulbecco’s modified Eagle’s medium (DMEM; Sigma-Aldrich) supplemented with 10 U ml^−1 penicillin, 0.1 mg ml^−1 streptomycin (Sigma-Aldrich), 2 mM L-glutamine (Sigma-Aldrich), and 10% FBS (Sigma-Aldrich) in a humidified atmosphere containing 5% CO2 at 37 °C. HEK293S GnTI^− cells (ATCC CRL-3022) were maintained in HyClone HyCell TransFx-H medium (GE Healthcare) supplemented with 10 U ml^−1 penicillin, 0.1 mg ml^−1 streptomycin, 4 mM L-glutamine, 0.15% poloxamer 188 (Sigma-Aldrich), and 1% FBS in an atmosphere containing 5% CO2 at 185 rpm at 37 °C. The ac splice variant of mouse TMEM16A (UniProt ID: Q8BHY3), mouse TMEM16B (UniProt ID: Q8CFW1), or mouse TMEM16F (UniProt ID: Q6P9J9) bearing a 3C cleavage site, a Venus YFP, a Myc tag, and a Streptavidin-binding peptide (SBP) downstream of the open reading frame in a modified pcDNA3.1 vector (Invitrogen) were used as described previously[21],[31]. Mutations were introduced using a modified QuikChange method[58] and were verified by sequencing.
HEK293T cells were transfected with 3–4 μg DNA per 6 cm Petri dish using the calcium phosphate co-precipitation method and were used within 24–96 h after transfection. Recordings were performed on inside-out patches excised from HEK293T cells expressing the construct of interest. Patch pipettes were pulled from borosilicate glass capillaries (O.D. 1.5 mm, I.D. 0.86 mm, Sutter Instrument) and were fire-polished with a microforge (Narishige) before use. Pipette resistance was typically 3–8 MΩ when filled with the recording solutions detailed below. Seal resistance was typically 4 GΩ or higher. Voltage-clamp recordings were made using Axopatch 200B, Digidata 1550, and Clampex 10.7 (Molecular Devices). Analog signals were filtered with the in-built 4-pole Bessel filter at 10 kHz and were digitized at 20 kHz. Solution exchange was achieved using a gravity-fed system through a theta glass pipette mounted on an ultra-fast piezo-driven stepper (Siskiyou). […] All recordings were performed at 20 °C.
A symmetrical ionic condition was used throughout. Stock solution with Ca^2+-EGTA contained 150 mM NaCl, 5.99 mM Ca(OH)2, 5 mM EGTA, and 10 mM HEPES at pH 7.40. Stock solution with EGTA contained 150 mM NaCl, 5 mM EGTA, and 10 mM HEPES at pH 7.40. Free Ca^2+ concentrations were adjusted by mixing the stock solutions at the required ratios calculated using the WEBMAXC program (http://web.stanford.edu/~cpatton/webmaxcS.htm). Patch pipettes were filled with the stock solution with Ca^2+-EGTA, which has a free Ca^2+ concentration of 1 mM. 1PBC (ChemBridge) stock was reconstituted in anhydrous DMSO (Sigma-Aldrich) at 100 mM and stored at −20 °C. Working solutions with 1PBC were prepared by serial dilution. Unless otherwise stated, experiments were performed at a saturating Ca^2+ concentration as shown in Supplementary Table 1 and the primary data were corrected for current rundown as described previously[21],[25].
Concentration-response relations, obtained from the ratio of the I-V plots before and after the application of the blocker, were fitted to the Hill equation,1 I/Imax=1/1+IC50/[blocker]^h where I/Imax is the normalized current responses, IC50 defines the concentration at which inhibition is at its half-maximum, and h is the Hill coefficient.

- Steady-state current (normalized) (10 µM 1PBC, -60 mV, 2 µM Ca2+): -0.2628
- remaining activity at 10 µM (10 µM 1PBC, -60 mV, 2 µM Ca2+, read-out: I/Imax): 45.4%
- Steady-state current (normalized) (10 µM 1PBC, -80 mV, 2 µM Ca2+): -0.388
- remaining activity at 10 µM (10 µM 1PBC, -80 mV, 2 µM Ca2+, read-out: I/Imax): 50.6%
- Steady-state current (normalized) (10 µM 1PBC, -100 mV, 2 µM Ca2+): -0.5211
- remaining activity at 10 µM (10 µM 1PBC, -100 mV, 2 µM Ca2+, read-out: I/Imax): 54.8%
- Steady-state current (normalized) (10 µM 1PBC, -120 mV, 2 µM Ca2+): -0.6616
- remaining activity at 10 µM (10 µM 1PBC, -120 mV, 2 µM Ca2+, read-out: I/Imax): 59.1%
- Steady-state current (normalized) (10 µM 1PBC, -140 mV, 2 µM Ca2+): -0.7984
- remaining activity at 10 µM (10 µM 1PBC, -140 mV, 2 µM Ca2+, read-out: I/Imax): 62.2%
- Steady-state current (normalized) (30 µM 1PBC, 0 mV, 2 µM Ca2+): 0.0002811
- remaining activity at 30 µM (30 µM 1PBC, 0 mV, 2 µM Ca2+, read-out: I/Imax): 11.5%
- I/Imax scaled to open probability (30 µM 1PBC, 400 nM Ca2+, 80 mV): 0.04177
- I/Imax scaled to open probability (30 µM 1PBC, 800 nM Ca2+, 80 mV): 0.04061
- I/Imax scaled to open probability (30 µM 1PBC, 2 µM Ca2+, 80 mV): 0.05533
- Steady-state current (normalized) (30 µM 1PBC, 20 mV, 2 µM Ca2+): 0.01874
- remaining activity at 30 µM (30 µM 1PBC, 20 mV, 2 µM Ca2+, read-out: I/Imax): 9.63%
- Steady-state current (normalized) (30 µM 1PBC, 40 mV, 2 µM Ca2+): 0.03065
- remaining activity at 30 µM (30 µM 1PBC, 40 mV, 2 µM Ca2+, read-out: I/Imax): 8.13%
- Steady-state current (normalized) (30 µM 1PBC, 60 mV, 2 µM Ca2+): 0.03882
- remaining activity at 30 µM (30 µM 1PBC, 60 mV, 2 µM Ca2+, read-out: I/Imax): 7.03%
- Steady-state current (normalized) (30 µM 1PBC, 80 mV, 2 µM Ca2+): 0.04513
- remaining activity at 30 µM (30 µM 1PBC, 80 mV, 2 µM Ca2+, read-out: I/Imax): 6.38%
- Steady-state current (normalized) (30 µM 1PBC, 100 mV, 2 µM Ca2+): 0.0498
- remaining activity at 30 µM (30 µM 1PBC, 100 mV, 2 µM Ca2+, read-out: I/Imax): 5.86%
- Steady-state current (normalized) (30 µM 1PBC, 120 mV, 2 µM Ca2+): 0.05715
- remaining activity at 30 µM (30 µM 1PBC, 120 mV, 2 µM Ca2+, read-out: I/Imax): 5.87%
- Steady-state current (normalized) (30 µM 1PBC, 140 mV, 2 µM Ca2+): 0.0661
- remaining activity at 30 µM (30 µM 1PBC, 140 mV, 2 µM Ca2+, read-out: I/Imax): 6.08%
- Steady-state current (normalized) (30 µM 1PBC, -20 mV, 2 µM Ca2+): -0.02579
- remaining activity at 30 µM (30 µM 1PBC, -20 mV, 2 µM Ca2+, read-out: I/Imax): 13.4%
- Steady-state current (normalized) (30 µM 1PBC, -40 mV, 2 µM Ca2+): -0.06545
- remaining activity at 30 µM (30 µM 1PBC, -40 mV, 2 µM Ca2+, read-out: I/Imax): 16.9%
- Steady-state current (normalized) (30 µM 1PBC, -60 mV, 2 µM Ca2+): -0.1171
- remaining activity at 30 µM (30 µM 1PBC, -60 mV, 2 µM Ca2+, read-out: I/Imax): 20.2%
- Steady-state current (normalized) (30 µM 1PBC, -80 mV, 2 µM Ca2+): -0.1843
- remaining activity at 30 µM (30 µM 1PBC, -80 mV, 2 µM Ca2+, read-out: I/Imax): 24%
- Steady-state current (normalized) (30 µM 1PBC, -100 mV, 2 µM Ca2+): -0.264
- remaining activity at 30 µM (30 µM 1PBC, -100 mV, 2 µM Ca2+, read-out: I/Imax): 27.8%
- Steady-state current (normalized) (30 µM 1PBC, -120 mV, 2 µM Ca2+): -0.3545
- remaining activity at 30 µM (30 µM 1PBC, -120 mV, 2 µM Ca2+, read-out: I/Imax): 31.7%
- Steady-state current (normalized) (30 µM 1PBC, -140 mV, 2 µM Ca2+): -0.4476
- remaining activity at 30 µM (30 µM 1PBC, -140 mV, 2 µM Ca2+, read-out: I/Imax): 34.8%
- Steady-state current (normalized) (100 µM 1PBC, 0 mV, 2 µM Ca2+): 0.0001085
- remaining activity at 100 µM (100 µM 1PBC, 0 mV, 2 µM Ca2+, read-out: I/Imax): 4.44%
- I/Imax scaled to open probability (100 µM 1PBC, 400 nM Ca2+, 80 mV): 0.01539
- I/Imax scaled to open probability (100 µM 1PBC, 800 nM Ca2+, 80 mV): 0.01603
SMILES: N#Cc1c(C(F)(F)F)cc(O)n2c1nc1ccccc12 [1PBC]
